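In this assay, cells in 96-well plates receive the compound at five concentrations for 48 hours. Endpoints are linearly interpolated between the surrounding concentrations. Definition used: TGI = concentration required for complete inhibition of growth.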
Assays:
Assay in all cases: inhibition of tumour cell growth, NCI panel, 48 h
A549 NSCLC = system: A549 NSCLC
ACHN renal = system: ACHN renal
DU-145 prostate = system: DU-145 prostate
HS 578T breast = system: HS 578T breast
K-562 leukemia = system: K-562 leukemia
KM12 colon = system: KM12 colon
MDA-N = system: MDA-N
NCI-H460 lung = system: NCI-H460 lung
SK-MEL-2 melanoma = system: SK-MEL-2 melanoma
SK-MEL-28 melanoma = system: SK-MEL-28 melanoma

CC(C)(C)OC(=O)NC(Cc1ccc(OCc2ccccc2)cn1)C(=O)N1CCCCC1 (stereo not given) gave a TGI (A549 NSCLC) greater than 100 µM, a TGI (ACHN renal) greater than 100 µM and a TGI (DU-145 prostate) greater than 100 µM. It also gave a TGI (HS 578T breast) greater than 100 µM, a TGI (K-562 leukemia) greater than 100 µM and a TGI (KM12 colon) greater than 100 µM. It also gave a TGI (MDA-N) greater than 100 µM, a TGI (NCI-H460 lung) greater than 100 µM and a TGI (SK-MEL-2 melanoma) of 58.2 µM. For the same compound, the TGI (SK-MEL-28 melanoma) was greater than 100 µM.

With c1ccc2c(c1)ccn2CCc1c[nH]c2ccccc12 the TGI (A549 NSCLC) was greater than 10 µM, the TGI (ACHN renal) was greater than 10 µM and the TGI (DU-145 prostate) was greater than 10 µM. The TGI (HS 578T breast) was greater than 10 µM, the TGI (K-562 leukemia) was greater than 10 µM and the TGI (KM12 colon) was greater than 10 µM. It also gave a TGI (MDA-N) greater than 10 µM, a TGI (NCI-H460 lung) greater than 10 µM and a TGI (SK-MEL-2 melanoma) greater than 10 µM. For the same compound, the TGI (SK-MEL-28 melanoma) was greater than 10 µM.

Oc1c(CN2CCOCC2)ccc2cccnc12 was tested, and the TGI (A549 NSCLC) was greater than 10 µM, the TGI (ACHN renal) was greater than 10 µM and the TGI (DU-145 prostate) was greater than 10 µM. For the same compound, the TGI (HS 578T breast) was greater than 10 µM, the TGI (K-562 leukemia) was greater than 10 µM and the TGI (KM12 colon) was greater than 10 µM. The TGI (MDA-N) was greater than 10 µM, the TGI (NCI-H460 lung) was greater than 10 µM and the TGI (SK-MEL-2 melanoma) was greater than 10 µM. It also gave a TGI (SK-MEL-28 melanoma) greater than 10 µM.

Compound COc1ccc(C(=C(Cl)c2ccccc2)c2ccc(OC)cc2)cc1 has a TGI (A549 NSCLC) greater than 100 µM, a TGI (ACHN renal) greater than 100 µM and a TGI (DU-145 prostate) greater than 100 µM. The TGI (HS 578T breast) was greater than 100 µM, the TGI (K-562 leukemia) was greater than 100 µM and the TGI (KM12 colon) was greater than 100 µM. It also gave a TGI (MDA-N) greater than 100 µM, a TGI (NCI-H460 lung) greater than 100 µM and a TGI (SK-MEL-2 melanoma) greater than 100 µM. For the same compound, the TGI (SK-MEL-28 melanoma) was greater than 100 µM.

Cc1ccc([N+](=O)[O-])cc1S(=O)(=O)Nc1ccc(C2=NNC(c3ccccc3)C2)cc1 (stereo not given) was tested, and the TGI (A549 NSCLC) was greater than 100 µM, the TGI (ACHN renal) was 54.2 µM and the TGI (DU-145 prostate) was 92 µM. The TGI (HS 578T breast) was greater than 100 µM, the TGI (K-562 leukemia) was 85 µM and the TGI (KM12 colon) was 34.4 µM. The TGI (MDA-N) was 92.7 µM, the TGI (NCI-H460 lung) was 37.6 µM and the TGI (SK-MEL-2 melanoma) was 45.4 µM. For the same compound, the TGI (SK-MEL-28 melanoma) was greater than 100 µM.

With N=C(N)c1ccc(C(NC(=O)CNS(=O)(=O)c2ccc3ccccc3c2)P(=O)(Oc2ccccc2)Oc2ccccc2)cc1 (stereo not given) the TGI (A549 NSCLC) was greater than 100 µM, the TGI (ACHN renal) was greater than 100 µM and the TGI (DU-145 prostate) was greater than 100 µM. It also gave a TGI (HS 578T breast) greater than 100 µM, a TGI (K-562 leukemia) greater than 100 µM and a TGI (KM12 colon) greater than 100 µM. It also gave a TGI (MDA-N) greater than 100 µM, a TGI (NCI-H460 lung) greater than 100 µM and a TGI (SK-MEL-2 melanoma) greater than 100 µM. For the same compound, the TGI (SK-MEL-28 melanoma) was greater than 100 µM.

CC1=NNC(N)=N/C1=C\C(Sc1ccc(Cl)cc1)c1ccc([N+](=O)[O-])cc1 (stereo not given) was tested, and the TGI (A549 NSCLC) was greater than 100 µM, the TGI (ACHN renal) was greater than 100 µM and the TGI (DU-145 prostate) was greater than 100 µM. For the same compound, the TGI (HS 578T breast) was greater than 100 µM, the TGI (K-562 leukemia) was greater than 100 µM and the TGI (KM12 colon) was greater than 100 µM. It also gave a TGI (MDA-N) greater than 100 µM, a TGI (NCI-H460 lung) greater than 100 µM and a TGI (SK-MEL-2 melanoma) greater than 100 µM. The TGI (SK-MEL-28 melanoma) was greater than 100 µM.

In the case of COCN(CCC1=CCCCC1)C(=O)OC, the TGI (A549 NSCLC) is reported as greater than 100 µM, the TGI (ACHN renal) is reported as greater than 100 µM and the TGI (DU-145 prostate) is reported as greater than 100 µM. For the same compound, the TGI (HS 578T breast) was greater than 100 µM, the TGI (K-562 leukemia) was greater than 100 µM and the TGI (KM12 colon) was greater than 100 µM. The TGI (MDA-N) was greater than 100 µM, the TGI (NCI-H460 lung) was greater than 100 µM and the TGI (SK-MEL-2 melanoma) was greater than 100 µM. For the same compound, the TGI (SK-MEL-28 melanoma) was greater than 100 µM.

For CC(=O)OCC12C(=O)C[C@@H](C)C3(CC(c4ccoc4)OC3=O)C1CCC(OC(C)=O)C21CO1 (stereo not given in full), the TGI (A549 NSCLC) was greater than 100 µM, the TGI (ACHN renal) was greater than 100 µM and the TGI (DU-145 prostate) was greater than 100 µM. It also gave a TGI (HS 578T breast) greater than 100 µM, a TGI (K-562 leukemia) greater than 100 µM and a TGI (KM12 colon) greater than 100 µM. The TGI (MDA-N) was greater than 100 µM, the TGI (NCI-H460 lung) was greater than 100 µM and the TGI (SK-MEL-2 melanoma) was greater than 100 µM. For the same compound, the TGI (SK-MEL-28 melanoma) was greater than 100 µM.

COC(CNC(=O)C(C)NC(=O)CCc1ccccc1)OC (stereo not given) was tested, and the TGI (A549 NSCLC) was greater than 100 µM, the TGI (ACHN renal) was greater than 100 µM and the TGI (DU-145 prostate) was greater than 100 µM. The TGI (HS 578T breast) was greater than 100 µM, the TGI (K-562 leukemia) was greater than 100 µM and the TGI (KM12 colon) was greater than 100 µM. For the same compound, the TGI (MDA-N) was greater than 100 µM, the TGI (NCI-H460 lung) was greater than 100 µM and the TGI (SK-MEL-2 melanoma) was greater than 100 µM. The TGI (SK-MEL-28 melanoma) was greater than 100 µM.

Compound CON(C)C(=O)CNC(=O)OCC1c2ccccc2-c2ccccc21 has a TGI (A549 NSCLC) greater than 100 µM, a TGI (ACHN renal) greater than 100 µM and a TGI (DU-145 prostate) greater than 100 µM. For the same compound, the TGI (HS 578T breast) was greater than 100 µM, the TGI (K-562 leukemia) was greater than 100 µM and the TGI (KM12 colon) was greater than 100 µM. For the same compound, the TGI (MDA-N) was greater than 100 µM, the TGI (NCI-H460 lung) was greater than 100 µM and the TGI (SK-MEL-2 melanoma) was greater than 100 µM. For the same compound, the TGI (SK-MEL-28 melanoma) was greater than 100 µM.

In the case of O=C1CC(=Nc2ccc(Cl)cc2)C(c2ccccc2)N1c1ccccc1 (stereo not given), the TGI (A549 NSCLC) is reported as greater than 100 µM, the TGI (ACHN renal) is reported as greater than 100 µM and the TGI (DU-145 prostate) is reported as 53 µM. It also gave a TGI (HS 578T breast) of 26.6 µM, a TGI (K-562 leukemia) greater than 100 µM and a TGI (KM12 colon) greater than 100 µM. It also gave a TGI (MDA-N) of 10.8 µM, a TGI (NCI-H460 lung) greater than 100 µM and a TGI (SK-MEL-2 melanoma) of 7.92 µM. It also gave a TGI (SK-MEL-28 melanoma) greater than 100 µM.

For CC1OC(OC2C(O[C@H]3CC[C@@]4(C)C(=CC[C@H]5[C@@H]6C[C@@H]7O[C@]8(CC[C@@H](CO)CO8)[C@@H](C)[C@@H]7[C@@]6(C)CC[C@@H]54)C3)OC(CO)C(O)C2OC2OC(CO)C(O)C(O)C2O)C(O)C(O)C1O (stereo not given in full), the TGI (A549 NSCLC) was 4.48 µM, the TGI (ACHN renal) was 3.25 µM and the TGI (DU-145 prostate) was 3.34 µM. The TGI (HS 578T breast) was 8.06 µM, the TGI (K-562 leukemia) was 3.17 µM and the TGI (KM12 colon) was 3.57 µM. It also gave a TGI (MDA-N) of 3.06 µM, a TGI (NCI-H460 lung) of 3.18 µM and a TGI (SK-MEL-2 melanoma) of 3.7 µM. The TGI (SK-MEL-28 melanoma) was 3.46 µM.

COc1cc(CNCc2cc(OC)c(OC)c(OC)c2)cc(OC)c1OC was tested, and the TGI (A549 NSCLC) was greater than 10 µM, the TGI (ACHN renal) was greater than 10 µM and the TGI (DU-145 prostate) was greater than 10 µM. It also gave a TGI (HS 578T breast) greater than 10 µM, a TGI (K-562 leukemia) greater than 7.36 µM and a TGI (KM12 colon) greater than 10 µM. The TGI (MDA-N) was greater than 10 µM, the TGI (NCI-H460 lung) was greater than 10 µM and the TGI (SK-MEL-2 melanoma) was greater than 10 µM. The TGI (SK-MEL-28 melanoma) was greater than 10 µM.

CCOC(=O)N/N=C(/N)c1cccc([N+](=O)[O-])c1 gave a TGI (A549 NSCLC) greater than 100 µM, a TGI (ACHN renal) greater than 100 µM and a TGI (DU-145 prostate) greater than 100 µM. For the same compound, the TGI (HS 578T breast) was greater than 100 µM, the TGI (K-562 leukemia) was greater than 100 µM and the TGI (KM12 colon) was greater than 100 µM. The TGI (MDA-N) was greater than 100 µM, the TGI (NCI-H460 lung) was greater than 100 µM and the TGI (SK-MEL-2 melanoma) was greater than 100 µM. The TGI (SK-MEL-28 melanoma) was greater than 100 µM.

With CCOCc1nc2c(OC)cc(-c3nc4ccc(N5CCN(C)CC5)cc4[nH]3)c(OC)c2[nH]1 the TGI (A549 NSCLC) was greater than 100 µM, the TGI (ACHN renal) was greater than 100 µM and the TGI (DU-145 prostate) was greater than 100 µM. For the same compound, the TGI (HS 578T breast) was greater than 100 µM, the TGI (K-562 leukemia) was greater than 100 µM and the TGI (KM12 colon) was greater than 100 µM. The TGI (MDA-N) was 35.9 µM, the TGI (NCI-H460 lung) was 65.1 µM and the TGI (SK-MEL-2 melanoma) was 40.6 µM. For the same compound, the TGI (SK-MEL-28 melanoma) was 36.3 µM.

— PubChem BioAssay (NCI)
